# Assay results as given in patent US8629256B2, “Genetically encoded calcium indicator polypeptides and nucleic acids encoding same” (Howard Hughes Medical Institute, priority 2009, dated 2014).
# Experiments:
# [1] = molecular target: T1, histamine 1 receptor H1R (Homo sapiens, UniProt P35367); assay: H1R calcium flux fluorescence assay with GCaMP3 or small molecule dye kits; type: cell-based; conditions: HEK293 and HeLa cells
# T1 construct: The H1R was cloned into the pCAG mammalian expression vector; expressed in transfected cells; host or cells: HEK293 and HeLa cells, transfected with pCAG-H1R (with pCAG-GCaMP3 or loaded with a dye kit)
# T1 sequence (P35367 with tags, fused parts or gaps): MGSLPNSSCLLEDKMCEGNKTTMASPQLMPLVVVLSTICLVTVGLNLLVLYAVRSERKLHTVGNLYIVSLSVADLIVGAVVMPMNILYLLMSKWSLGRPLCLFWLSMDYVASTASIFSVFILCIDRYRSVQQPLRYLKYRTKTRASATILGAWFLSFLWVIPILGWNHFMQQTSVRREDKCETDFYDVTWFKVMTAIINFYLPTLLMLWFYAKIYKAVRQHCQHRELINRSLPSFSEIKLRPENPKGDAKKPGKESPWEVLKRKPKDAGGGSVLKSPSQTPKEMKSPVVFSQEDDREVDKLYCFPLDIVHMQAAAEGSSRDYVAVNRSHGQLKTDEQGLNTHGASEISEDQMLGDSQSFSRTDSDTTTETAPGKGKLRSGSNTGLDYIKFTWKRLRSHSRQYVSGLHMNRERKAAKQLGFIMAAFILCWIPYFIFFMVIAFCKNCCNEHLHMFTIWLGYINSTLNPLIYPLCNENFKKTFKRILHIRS
# Procedure: The nucleic acid sequence was cloned into a mammalian expression vector driving from the CAG promoter (pCAG).
# The H1R was cloned into the pCAG mammalian expression vector. […] In parallel, HEK293 cells were transfected with pCAG-H1R and incubated with either of the two best-performing small molecule dye calcium kits (the BD Calcium Kit from BD Biosciences and the FLIPR Calcium-5 Kit from Molecular Devices). […] Biophys.
# [2] = tested on: HEK293 cells; assay: Baseline fluorescence (brightness) of GCaMP-transfected HEK293 cells; type: cell-based, human; conditions: 10 μM proteasome inhibitor
# Procedure: FIGS. 1A-1E show the in vitro characterization of GCaMP3. […] FIG. 1B is a schematic representation of GCaMP2 and GCaMP3. Mutated residues are shown below GCaMP3. FIG. 1C is a graph of the fluorescence spectra of GCaMP3 and GCaMP2 (1 μM protein) with 1 mM Ca^2+ or 10 mM EGTA in MOPS buffer (30 mM MOPS, 100 mM KCl, pH 7.5) (average of three independent measurements). The fluorescence intensity of each indicator was normalized to the peak of the calcium-saturated spectrum. […] FIG. 1D is a graph of the Ca^2+ titration curve (1 μM protein) in MOPS buffer. […] FIG. 1E is images (left) and a graph (right) showing the improved baseline fluorescence of GCaMP3 compared to GCaMP2. Both indicators were either transfected to HEK293 cells or virally delivered to layer 2/3 cortical neurons. Images were taken either 48 hours post-transfection or 12 days post-viral injection, then analyzed with VOLOCITY® 5.0 (Improvision Imaging Processing & Vision Co., Coventry, England). 50 μm scale bar. […]
# GCaMPs in pCMV were transfected into HEK293 cells using Lipofectamine 2000 (Invitrogen, Carlsbad, Calif.), and imaging experiments were performed 48 hours post transfection. 293 cells transfected with GCaMPs in 96-well plate were imaged on an FDSS plate reader (Hamamatsu, Japan). Acetylcholine (Ach) was automatically added 10 seconds after read initiation. Brightness was quantified using VOLOCITY® 5.0 (Improvision).
"response-to-baseline ratio ([1]; 10 nM histamine plus antagonist, all detection methods)","inhibition of the H1R receptor ([1]; 10 nM histamine, GCaMP3 and both dye kits)",Structure (SMILES),effect on baseline fluorescence of HEK293 cells expressing GCaMP2 [2]
~1.0,near complete inhibition,O=C(O)COCCN1CCN(C(c2ccccc2)c2ccc(Cl)cc2)CC1 (stereo not drawn) [cetirizine],–
–,–,CC(=O)N[C@@H](CSC(=O)[C@]1([C@@H](O)C(C)C)NC(=O)[C@H](C)[C@@H]1O)C(=O)O [lactacystin],increased the baseline fluorescence
